Assay: MTS-PMS cytotoxicity bioassay, MDA-MB 231
Details: human, MDA-MB 231 breast cancer cells
Description: 5000 cells/well were used for testing.
The drug Doxorubicin was used as system suitability (SST) reference.

Structure (SMILES): COc1cccc2c1C(=O)c1c(O)c3c(c(O)c1C2=O)C[C@@](O)(C(=O)CO)C[C@@H]3O[C@H]1C[C@H](N)[C@H](O)[C@H](C)O1 [Doxorubicin]
- cytotoxicity at 100 μm: 45%
